Test results reported in patent US5001235A, “Antibiotic beta-lactams containing a pyridone carboxylic acid or acid derivative” (The Upjohn Company, priority 1989, dated 1991).
≈ marks a conversion by molar mass, not a printed value. Counter-ions that a name gives are not always drawn. Like-named read-outs stand apart in the source and are kept apart here.

Columns and labels:
Test in all cases: MIC by agar dilution (Mueller Hinton Agar)
Format in all cases: cell-based
[1] = test system: Proteus vulgaris; details: Culture Number 9679, MHA, 35° C., 20 hours, read-out: Minimum Inhibitory Concentration
Description: (§1) The compounds of this invention and their respective pharmacologically acceptable salts have antibiotic activity against a variety of gram-negative bacteria including Escherichia coli, Klebsiella pneumoniae, and Pseudomonas aeruginosa. The compounds are useful for treating bacterial infections in animals, including and most preferably humans. Compounds of the invention are tested for in vitro antimicrobial activity using standard testing procedures such as the determination of minimum inhibitory concentration (MIC) by agar dilution as described in "Methods for Dilution Antimicrobial Susceptibility Tests for Bacteria That Grow Aerobically" (M7-A) Published December 1985 by the National Committee for Clinical Laboratory Standards, 771 East Lancaster Avenue, Villanova, Pa. 19084. Briefly, MIC values are determined in unsupplemented Mueller Hinton Agar (MHA). The compounds tested are diluted serially into molten MHA at 47° C. The agar is poured into petri dishes and allowed to harden. The various bacteria used for testing are grown overnight on MHA at 35° C. and transferred to Tryptiease Soy Broth (TSB) until a turbidity of 0.5 McFarland standard is obtained. The bacteria are diluted one to 20 in TSB and inoculated on the plates (1 μl using a Steers replicator). […] The MIC test results of two typical compounds of this invention, Compound 14 which is (3S)-3-[2-(2-Amino-4-thiazolyl)-Z-(2)-carboxyisopropyloxyimino)acetamido]- 1-[(3-carboxy-4-pyridon-6-yl)-carbonylamino-1-(2-imidazolidone-3-yl)sulfonylaminocarbonyl]-2-azetidinone trisodium salt and Compound 17 which is (3S)-3-[2-(2-Amino-4-thiazolyl)-Z-(2)-(carboxyisopropyloxyamino)acetamido]-1-[(3-hydroxyaminocarbonyl-4-pyridon-6-yl)carbonylamino-1-(2-imidazolidone-3-yl)sulfonylaminocarbonyl]-2-azetidinone, are given in Table I.

[2] = test system: Klebsiella oxytoca; details: 20 h, 35° C., read-out: Minimum Inhibitory Concentration
Description: as §1

[3] = test system: Streptococcus pneumoniae; details: Culture Number 41, MHA, 35° C., 20 hours, read-out: Minimum Inhibitory Concentration
Description: as §1

[4] = test system: Pseudomonas aeruginosa
Description: as §1

[5] = test system: Serratia marcescens; details: Culture Number 6888, MHA, 35° C., 20 hours, read-out: Minimum Inhibitory Concentration
Description: as §1

[6] = test system: Staphylococcus aureus; details: MHA, 35° C., 20 hours; for MIC: Staphylococcus aureus, Culture Number 9218, read-out: Minimum Inhibitory Concentration
Description: as §1

[7] = test system: Enterobacter cloacae; details: 20 h, 35° C., read-out: Minimum Inhibitory Concentration
Description: as §1

[8] = test system: Citrobacter freundli; details: Culture Number 3507, MHA, 35° C., 20 hours, read-out: Minimum Inhibitory Concentration
Description: as §1

[9] = test system: Klebsiella pneumoniae; details: Culture Number 58, MHA, 35° C., 20 hours, read-out: Minimum Inhibitory Concentration
Description: as §1

[10] = test system: Streptococcus pyogenes; details: Culture Number 152, MHA, 35° C., 20 hours, read-out: Minimum Inhibitory Concentration
Description: as §1

[11] = test system: Escherichia coli; details: 20 h, 35° C., read-out: Minimum Inhibitory Concentration
Description: as §1

[12] = test system: Streptococcus faecalis; details: Enterococcus faecalis; Culture Number 694; MHA, 35° C., 20 hours; read-out: Minimum Inhibitory Concentration
Description: as §1

[13] = 20 h, Culture Number 231, MHA, 35° C., 20 hours, read-out: Minimum Inhibitory Concentration
[14] = 20 h, Culture Number 9191, MHA, 35° C., 20 hours, read-out: Minimum Inhibitory Concentration

| Structure (SMILES) | MIC [1] [µg/mL] | MIC ([2]; Culture Number 9383, MHA) [µg/mL] | MIC ([2]; Culture Number 9384, MHA) [µg/mL] | MIC [3] [µg/mL] | MIC [4, 13] [µg/mL] | MIC [4, 14] [µg/mL] | MIC [5] [µg/mL] | Minimum Inhibitory Concentration ([6]; Culture Number 3665) [µg/mL] | Minimum Inhibitory Concentration ([6]; Culture Number 6685) [µg/mL] | MIC [6] [µg/mL] | MIC ([7]; Culture Number 9381, MHA) [µg/mL] | MIC ([7]; Culture Number 9382, MHA) [µg/mL] | MIC [8] [µg/mL] | MIC [9] [µg/mL] | MIC [10] [µg/mL] | MIC ([11]; Culture Number 9379, MHA) [µg/mL] | MIC ([11]; Culture Number 9380, MHA) [µg/mL] | MIC ([11]; Culture Number 9451, MHA) [µg/mL] | MIC [12] [µg/mL] | MIC ([4]; pseudomonas aeruginosa Culture No. 231, given in text for Compound 18, read-out: M/C) [µg/mL] |
| --- | --- | --- | --- | --- | --- | --- | --- | --- | --- | --- | --- | --- | --- | --- | --- | --- | --- | --- | --- | --- |
| CC(C)(O/N=C(\C(=O)N[C@H]1CN(C(=O)NS(=O)(=O)N2CCN(NC(=O)c3cc(=O)c(C(=O)O)c[nH]3)C2=O)C1=O)c1csc(N)n1)C(=O)O [Compound 14, (3S)-3-[2-(2-Amino-4-thiazolyl)-Z-(2)-carboxyisopropyloxyimino)acetamido]-1-[(3-carboxy-4-pyridon-6-yl)-carbonylamino-1-(2-imidazolidone-3-yl)sulfonylaminocarbonyl]-2-azetidinone trisodium salt] | 0.06 | 4 | 0.25 | 64 | 0.5 | 1 | 0.5 | > 128 | > 128 | > 128 | 64 | 0.5 | 0.25 | 0.5 | 4 | 0.25 | 0.125 | 0.125 | > 128 |  |
| CC(C)(O/N=C(\C(=O)N[C@H]1CN(C(=O)NS(=O)(=O)N2CCN(NC(=O)c3cc(=O)c(C(=O)NO)c[nH]3)C2=O)C1=O)c1csc(N)n1)C(=O)O [Compound 17, (3S)-3-[2-(2-Amino-4-thiazolyl)-Z-(2)-(carboxyisopropyloxyamino)acetamido]-1-[(3-hydroxyaminocarbonyl-4-pyridon-6-yl)carbonylamino-1-(2-imidazolidone-3-yl)sulfonylaminocarbonyl]-2-azetidinone] | 0.125 (≈ 0.172 µM) | 4 (≈ 5.5 µM) | 0.5 (≈ 0.687 µM) | 64 (≈ 88 µM) | 4 (≈ 5.5 µM) | 4 (≈ 5.5 µM) | 2 (≈ 2.75 µM) | > 128 | > 128 | > 128 | 64 (≈ 88 µM) | 2 (≈ 2.75 µM) | 0.25 (≈ 0.344 µM) | 0.5 (≈ 0.687 µM) | 4 (≈ 5.5 µM) | 0.5 (≈ 0.687 µM) | 0.5 (≈ 0.687 µM) | 0.25 (≈ 0.344 µM) | > 128 |  |
| CC(C)(O/N=C(\C(=O)N[C@H]1CN(C(=O)NS(=O)(=O)N2CCN(NC(=O)c3cc(=O)c(C(N)=O)c[nH]3)C2=O)C1=O)c1csc(N)n1)C(=O)O [Compound 18] |  |  |  |  |  |  |  |  |  |  |  |  |  |  |  |  |  |  |  | 8 (≈ 11.2 µM) |
